These are literature values, as cited in publication PMC7894237 (Inflammation Research, 2021).

Where two headings read alike, the source gives them in different places.

Data set [1] relates to patient with severe COVID-19. The conditions noted are these: anakinra started day 10 after hospital admission.
In data set [2] the test system is sHLH/MAS patients. The conditions noted are these: five adult patients, IV infusions up to 2400 mg/day.
For data set [3], the system named is patients with severe sepsis with hyper-inflammation. The conditions noted are these: phase 3 randomized clinical trial.
For data set [4], the system named is patients with COVID-19. The conditions noted are these: nine patients.
Assay in data set [5]: not given
This is another data set of the same source.

The subject of data set [6] is patients with rheumatoid arthritis.
Data set [7] has as its system AAK1.
Data set [8] has as its system IL-1α, IL-1β, and TNF-α.
Data set [9] concerns severe cases of COVID-19. The conditions noted are these: compared with the control group.
Data set [10] relates to AAK1. The conditions noted are these: compared with ruxolitinib and fedratinib.
In data set [11] the test system is COVID-19 particle entry in human lung host cells. The conditions noted are these: via inhibiting AAK1 and binding to GAK.
Data set [12] concerns IL-6 and GM-CSF levels.
Data set [13] relates to patients with SARS infection. The conditions noted are these: human, in vivo.
Data set [14] concerns SARS-CoV1 replication in Vero cells.
Data set [15] has the same test system. The source holds these as a separate data set.
The subject of data set [16] is patients with CAPS.
Assay in data set [17]: not given
The source holds these as a separate data set.

Data set [18] relates to patients with COVID-19.
Data set [19] concerns COVID-19 pneumonia.
The test system of data set [20] is severe cases of COVID-19.
In data set [21] the test system is COVID-19 patients. The conditions noted are these: single 300 mg dose subcutaneously, ten patients.
In data set [22] the test system is Castleman’s disease.
Data set [23] relates to patients with COVID-19 who developed ARDS.
Assay in data set [24]: not given
The source holds these as a separate data set.

Data set [25] concerns patients with multicentric Castleman disease.
The subject of data set [26] is influenza. The conditions noted are these: pre-treatment, same dose of subtypes.
Data set [27] concerns malaria. The conditions noted are these: deficient mice.
For data set [28], the system named is patients with COVID-19. The conditions noted are these: patient, died 13 days after hospitalization.
[29] abbreviates: of those who experienced a worsening.

As usually defined, the half-life is the time needed for the level to fall by half in the phase considered. Usually bioavailability stands for the share of a dose that reaches the circulation, judged against a reference dose that is usually intravenous. As to “anakinra: recombinant IL-1R antagonist; blocks the binding of both IL-1α and IL-1β to IL-1R”, the half-life was 4 to 6 h. Moreover, the bioavailability (subcutaneous route) is 95%. Also, the plasma concentrations entry (subcutaneous route, different chronic inflammatory conditions) is “adequate and consistent plasma concentrations”. In data set [1], the “day on which patient was discharged from the ICU” value was 18 days and the “day on which respiratory function improved” value is 13 days. Moreover, the therapeutic effect result in data set [2] is “reduced cytokine storm and subsequent clinical improvement”. Also, in data set [3], the side effects result was “without markedly side effects” and the therapeutic effect result is “beneficial”. Further, in data set [4], the therapeutic effect result was “prevents mechanical ventilation and decreases serum inflammatory markers”; the toxicity result is reported as “no toxicity”. Further, the side effects observed entry in data set [5] (chronic anakinra therapy) was “reaction at the site of injection and infection”. The “organ toxicities or gastrointestinal disturbances” value in data set [5] (specific IL-1β-targeting agents) is “no organ toxicities or gastrointestinal disturbances”.

For the molecule `C[C@@H]1CCN(C(=O)CC#N)C[C@@H]1N(C)c1ncnc2[nH]ccc12` [tofacitinib], in data set [6], the “CRP level and erythrocyte sedimentation rates” value was “decreased CRP level and erythrocyte sedimentation rates (ESR)”; the major side effects entry was “increasing both low-density lipoprotein (LDL) and high-density lipoprotein (HDL) levels, and decreasing blood neutrophils”. Further, the “inhibition of AAK1” value in data set [7] is listed as “does not significantly inhibit”.

Regarding `C=C1CC[C@H](O)C/C1=C/C=C1\CCC[C@]2(C)[C@@H]([C@H](C)/C=C/[C@H](C)C(C)C)CC[C@@H]12` [vitamin D], the “expression of pro-inflammatory markers” value in data set [8] is on record as “suppressing the expression of pro-inflammatory markers”.

For the molecule `N#CC[C@H](C1CCCC1)n1cc(-c2ncnc3[nH]ccc23)cn1` [ruxolitinib], the clinical improvement result in [9] is “faster clinical improvement”.

For the molecule `CCS(=O)(=O)N1CC(CC#N)(n2cc(-c3ncnc4[nH]ccc34)cn2)C1` [baricitinib], the “affinity to AAK1” value in data set [10] is “more affinity to AAK1”. The COVID-19 particle entry entry in data set [11] was “can reduce the COVID-19 particle entry”. Further, the “IL-6 and GM-CSF levels” value in [12] is recorded as “can decrease”.

In the case of IFN-α, the therapeutic effect entry in [13] is on record as “inconclusive”. Moreover, in [14], the “effect on SARS-CoV1 replication” value is “inhibited synergistically”. Further, in [15], the “sensitivity of SARS-CoV1 to the interferon” value is recorded as “only weakly sensitive”.

Consider rilonacept, for which the major side effects result in data set [16] was “reactions at injection-site, upper respiratory tract infections, sinusitis, cough, hypoesthesia, nausea, diarrhea, stomach discomfort, and urinary tract infections”. Moreover, the “serum CRP level” value in [16] (week six, pre-treatment baseline value = 22 mg/L) was 2 mg/L.

In the case of “tocilizumab: recombinant humanized anti-interleukin-6 receptor monoclonal antibody”, the major side-effects entry in data set [17] is on record as “general infections, hepatotoxicity, hypertriglyceridemia, as well as diverticulitis”. Also, in [18], the “patients in whom the high level of CRP was suppressed rapidly” value was 11/15. Besides, in [18] (after tocilizumab therapy), the “patients with decreased serum IL-6 levels” value is listed as “ten”. Moreover, the “need for mechanical ventilation” value in data set [19] (after tocilizumab therapy) is given as “did not require mechanical ventilation”. Further, the treatment outcome in data set [19] (single administration in combination with hydroxychloroquine) is reported as “successfully treated”. Besides, in data set [20] (10/19 patients), the “patients whose lymphocyte number returned to normal values” is 52.6%. Moreover, the “patients whose abnormal elevated C-reactive protein returned to normal values” in data set [20] (16/19 patients) is on record as 84.2%. In addition, the “patients with lowered oxygen intake” value in data set [20] (5 days after administration, 15/ 20 patients) is on record as 75%. Besides, the side effects result in data set [20] (all patients) is on record as “No obvious side effects”.

With “canakinumab: high affinity, monoclonal anti-IL-1β antibody”, the tolerability entry in data set [21] is on record as “well tolerated, with no recorded injection site reactions, infection, or side-effects”.

Consider siltuximab: monoclonal antibody of IL-6, for which the maximum tolerated dose in [22] (Castleman’s disease) is recorded as 100 mg twice weekly. In addition, the “median decrease in hepcidin levels” value in data set [22] (day 8 of siltuximab treatment) is recorded as 47%. For the same molecule, the “dose at which maximum suppression of CRP level was observed” value in data set [22] (every 3 weeks) was 12 mg/kg. Moreover, in data set [23] (21 patients, follow-up 8 days), the “patients with improvement in their condition with a reduced need for ventilation” value was 33% and the “patients with worsening of their condition who required intubation” value is given as 24%. Further, in [23] (21 patients, intravenous 700-1200 mg, follow-up 8 days), the “patients with serum CRP levels reduced to within the normal range” value is listed as 16 patients. Moreover, in data set [23] (setting [29]), the “patients who developed a cerebrovascular event” value was “one” and the patients who died result is “one”. Further, the half-life in data set [24] was 391 ± 101 h. For the same molecule, in data set [25] (3/60 patients), the “side effect: vomiting” value is on record as 5%. Moreover, in [25] (4/60 patients), the “side effect: nausea” value is 7% and the “side effect: neutropenia” value is 7%. Moreover, in [25] (5/60 patients), the “side effect: fatigue” value is 8%. Moreover, the “side effect: hypertension” value in data set [25] (8/60 patients) is 13%. Besides, the “side effect: infection” value in data set [25] (25/60 patients) is given as 42%. The deaths entry in data set [25] (60 patients) was “no deaths”.

B1: interferon-gamma: Type II IFN (protein, UniProt P01579 24-161, looked up)
Interferon gamma: QDPYVKEAENLKKYFNAGHSDVADNGTLFLGILKNWKEESDRKIMQSQIVSFYFKLFKNFKDDQSIQKSVETIKEDMNVKFFNSNKKKRDDFEKLTNYSVTDLNVQRKAIHELIQVMAELSPAAKTGKRKRSQMLFRG
With B1, the “sensitivity of SARS-CoV1 to the interferon” value in [15] is “only weakly sensitive”.

B2: IFN-α5: type I IFN subtype (protein, UniProt P01569 22-189, looked up)
Interferon alpha-5: LGCDLPQTHSLSNRRTLMIMAQMGRISPFSCLKDRHDFGFPQEEFDGNQFQKAQAISVLHEMIQQTFNLFSTKDSSATWDETLLDKFYTELYQQLNDLEACMMQEVGVEDTPLMNVDSILTVRKYFQRITLYLTEKKYSPCAWEVVRAEIMRSFSLSANLQERLRRKE
On to B2, for which the “effect on viral load” value in data set [26] is listed as “more suppressive effects on the viral load than IFN-α1”.

B3: IFN-α6: type I IFN subtype (protein, UniProt P05013 21-189, looked up)
Interferon alpha-6: SLDCDLPQTHSLGHRRTMMLLAQMRRISLFSCLKDRHDFRFPQEEFDGNQFQKAEAISVLHEVIQQTFNLFSTKDSSVAWDERLLDKLYTELYQQLNDLEACVMQEVWVGGTPLMNEDSILAVRKYFQRITLYLTEKKYSPCAWEVVRAEIMRSFSSSRNLQERLRRKE
With B3, the “effect on viral load” value in [26] is “more suppressive effects on the viral load than IFN-α1”.

B4: recombinant soluble IL-6R: recombinant soluble IL-6R, mimic the trans-signaling of IL-6 (protein, UniProt P08887 20-365, looked up)
extracellular domain: LAPRRCPAQEVARGVLTSLPGDSVTLTCPGVEPEDNATVHWVLRKPAAGSHPSRWAGMGRRLLLRSVQLHDSGNYSCYRAGRPAGTVHLLVDVPPEEPQLSCFRKSPLSNVVCEWGPRSTPSLTTKAVLLVRKFQNSPAEDFQEPCQYSQESQKFSCQLAVPEGDSSFYIVSMCVASSVGSKFSKTQTFQGCGILQPDPPANITVTAVARNPRWLSVTWQDPHSWNSSFYRLRFELRYRAERSKTFTTWMVKDLQHHCVIHDAWSGLRHVVQLRAQEEFGQGEWSEWSPEAMGTPWTESRSPPAENEVSTPMQALTTNKDDDNILFRDSANATSLPVQDSSSVPLP
modifications: extracellular domain
Turning to B4, the outcome of malaria in [27] was “restores the lethal outcome of malaria”.

B5: sarilumab: human monoclonal antibody directed against the alpha subunit of the IL-6R (antibody, chains of the INN, looked up, V domains shown)
VH: EVQLVESGGGLVQPGRSLRLSCAASRFTFDDYAMHWVRQAPGKGLEWVSGISWNSGRIGYADSVKGRFTISRDNAENSLFLQMNGLRAEDTALYYCAKGRDSFDIWGQGTMVTVSS
VL: DIQMTQSPSSVSASVGDRVTITCRASQGISSWLAWYQQKPGKAPKLLIYGASSLESGVPSRFSGSGSGTDFTLTISSLQPEDFASYYCQQANSFPYTFGQGTKLEIK
As for B5, the “patients with no improvement in lung function who died” value in data set [28] is listed as “one”.
